Square brackets hold non-standard residues; d marks the D form. Peptide text beside a SMILES is read from it. * marks the point of attachment. N(4-Sulfamoylphenethyl)Gly = NS(=O)(=O)c1ccc(CCNCC(=O)O)cc1; Gly(N-piperonyl) = O=C(O)CNCc1ccc2c(c1)OCO2; hSer(lactone) = O=C1OCC[C@@H]1N*; NFurfurylGly = O=C(O)CNCc1ccco1; NAllylGly = C=CCNCC(=O)O

The first experiment has as its system anti-FLAG antibody. Briefly: Competition experiment: anti-FLAG antibody pre-incubated with excess soluble peptide before hybridization to the array. In kind it is binding, mouse. The settings on record: antibody first incubated with excess peptide. On the procedure:
To address if the higher affinity hits bind to anti-FLAG antibody in the antigen-binding site, the inventors carried out a competition experiment in which the anti-FLAG antibody was first incubated with an excess of FLAG peptide or, as a control, the Myc peptide, before hybridization to the array.
With “N-Asp-Tyr-Lys-Asp-Asp-Asp-Asp-Lys-C [FLAG peptide]”, the “effect of excess soluble peptide on binding of anti-FLAG antibody to the molecules on the microarray” value was “abrogated binding”.

The next experiment has as its target M2 monoclonal anti-flag antibody. In words: Microarray binding of spotted hits titrated with anti-FLAG antibody. Also on record: species or system mouse. The conditions noted are these: apparent KD from microarray binding curves with decreasing anti-FLAG antibody concentrations; NA = spot not bound by anti-FLAG antibody. On the procedure: (§1) A total of 16 copies of each array of 100 compounds (the hits and various controls) were spotted onto each microscope slide. Each array, isolated by applying a Whatman Fast Frame to the slide, was then incubated for 2 hr with either anti-Myc antibody or various concentrations of anti-FLAG antibody. After washing, the amount of antibody captured at each spot was quantified by subsequent hybridization with fluorescently labeled secondary antibody, another wash, drying, and scanning. […] No binding of the anti-FLAG antibody to the Myc peptide was observed, nor was binding of the anti-Myc antibody to any of the hits or the FLAG peptide.
Microarray Spotting, Hybridization, and Data Analysis. Contents of the 384-well plates were printed onto maleimide-coated glass slides with a NanoPrint LM 360 (TeleChem International Inc., Sunnyvale, Calif.) with MP946 Micro Spotting Pins. A 10% ethanol (EM-AX007309; Midwest Grain Products) and water mixture was used to wash the pins before printing and after spotting of each compound. Multiple wash/sonicate/dry cycles were used between each sample pick-up and print cycle. Spots were printed on the slide to fit within the wells of a 16-well Whatman Fast Frame (Whatman no. 10486003), which allows 16 isolated hybridization events on a single slide. Slides were left in 50% humidity for 12 hr […]. After printing, the humidifier was turned off and the slides were left for at least 12 hr before free maleimide groups were blocked with 2% β-mercaptoethanol in DMF for 1 hr by placing the slides in glass slide holders inside of glass containers on a shaker in the chemical hood. Slides were washed sequentially with DMF for 30 min, tetrahydrofuran for 30 min, DMF for 30 min, acetonitrile thrice for 20 min, isopropanol thrice for 20 min, 13 TBST once for 20 min, then 0.13 TBST once for 20 min. Washed slides were spun dry for 5 min at 2000 rpm.
Dry slides were placed inside the Whatman Fast Frame following the provided instructions, and each of the 16 wells per slide was blocked with 100 μl of StartingBlock (Fisher) for 1 hr at RT with a multichannel pipetteman. Wells were drained and washed once with […] TBST. TBST was drained one well at a time before adding 100 μl of appropriate concentrations of protein(s) diluted in 1:1 TBST:StartingBlock. The FastFrame was placed on wet paper towels inside of a glass cake pan, which was sealed with Glad Press'n Seal and placed on an orbital shaker for 2-4 hr at RT. Each well was washed with TBST six times before adding 4 μg/ml Alexa647 goat anti-mouse IgG secondary antibodies diluted in 1:1 TBST:StartingBlock for 1 hr at RT. Slides were washed five times for 3 min with 13 TBST, then once with 0.13 TBST, spun dry at 2000 rpm, then scanned using a GenePix Autoloader 4200AL Scanner (Molecular Devices, Sunnyvale Calif.). Slides were scanned with a power of 1003 and photomultiplier tube setting of 5003-6003. Gal files were created and used to determine fluorescence intensity of each of the spots with GenePixPro6.0. Gal files were aligned manually, then automatic spotfinding followed by manual correction of spots performed for each of the scanned slides. GPR files were created and median fluorescence-background fluorescence values for each of the spots were cut and pasted in Excel and arranged (using simple macros) to simplify transferring results to GraphPad Prism 5.0 software for binding curve analyses.
In the case of `C[C@@H](NC(=O)[C@@H](Cc1ccc(O)cc1)NC(=O)[C@@H](CCCCN)NC(=O)[C@H](N)CC(N)=O)C(=O)N[C@H](CC(=O)O)C(=O)N[C@H](CC(=O)O)C(=O)N(CC(=O)N[C@H]1CCOC1=O)Cc1ccco1` [Spot A7] (H-[dN][dK][dY][dA][dD][dD][NFurfurylGly]-{hSer(lactone)}; C-terminus assumed), the Kd turned out to be 5 nM.

For `C=CCNCC(=O)N[C@@H](C(=O)N[C@H](CCCCN)C(=O)N[C@H](Cc1ccc(O)cc1)C(=O)N[C@H](CC(=O)O)C(=O)N[C@H](CC(=O)O)C(=O)N(CC(=O)N[C@H]1CCOC1=O)Cc1ccco1)[C@H](C)O` [Spot B1] (H-[NAllylGly][dT][dK][dY][dD][dD][NFurfurylGly]-{hSer(lactone)}), the Kd turned out to be 3 nM. Consider `N=C(N)NCCC[C@@H](NC(=O)[C@@H](Cc1ccc(O)cc1)NC(=O)[C@@H](CCCCN)NC(=O)[C@H](N)CCC(=O)O)C(=O)N[C@H](Cc1ccc(O)cc1)C(=O)N[C@H](Cc1c[nH]c2ccccc12)C(=O)N(CC(=O)N[C@H]1CCOC1=O)Cc1ccco1` [Spot B4] (H-[dE][dK][dY][dR][dY][dW][NFurfurylGly]-{hSer(lactone)}; C-terminus assumed), for which the Kd came to 7 nM. `CC(C)C[C@@H](N)C(=O)N[C@H](CC(=O)O)C(=O)N[C@H](CCCCN)C(=O)N[C@H](Cc1ccc(O)cc1)C(=O)N[C@H](CCC(=O)O)C(=O)N[C@H](Cc1c[nH]c2ccccc12)C(=O)N(CC(=O)N[C@H]1CCOC1=O)Cc1ccco1` [Spot B7] (H-[dL][dD][dK][dY][dE][dW][NFurfurylGly]-{hSer(lactone)}; C-terminus assumed): the Kd came to 6 nM. With `NCCCC[C@@H](NC(=O)[C@H](N)CC(=O)O)C(=O)N[C@H](Cc1ccc(O)cc1)C(=O)N[C@H](Cc1ccccc1)C(=O)N[C@H](CO)C(=O)N(CCc1ccc(S(N)(=O)=O)cc1)CC(=O)N(CC(=O)N[C@H]1CCOC1=O)Cc1ccco1` [Spot B8] (H-[dD][dK][dY][dF][dS][N(4-Sulfamoylphenethyl)Gly][NFurfurylGly]-{hSer(lactone)}), the Kd was found to be 9 nM.

On to `NCCCC[C@@H](NC(=O)[C@@H](CO)NC(=O)[C@H](N)CCC(=O)O)C(=O)N[C@H](Cc1ccc(O)cc1)C(=O)N[C@H](CC(=O)O)C(=O)N[C@H](Cc1ccc(O)cc1)C(=O)N(CC(=O)N[C@H]1CCOC1=O)Cc1ccco1` [Spot B9] (H-[dE][dS][dK][dY][dD][dY][NFurfurylGly]-{hSer(lactone)}; C-terminus assumed), for which the Kd was 2 nM. In the case of `NCCCC[C@@H](N)C(=O)N[C@H](Cc1ccc(O)cc1)C(=O)N[C@H](Cc1ccc(O)cc1)C(=O)N[C@H](CC(N)=O)C(=O)N[C@H](CC(=O)O)C(=O)N(CC(=O)N(CC(=O)N[C@H]1CCOC1=O)Cc1ccco1)Cc1ccc2c(c1)OCO2` [Spot D5] (H-[dK][dY][dY][dN][dD][Gly(N-piperonyl)][NFurfurylGly]-{hSer(lactone)}), the Kd was found to be 7 nM. On the same count and under the same terms, next, `C=CCN(CC(=O)N(CC(=O)N[C@H]1CCOC1=O)Cc1ccco1)C(=O)[C@@H](CC(=O)O)NC(=O)CNC(=O)CN(Cc1ccc2c(c1)OCO2)C(=O)[C@@H](Cc1ccc(O)cc1)NC(=O)[C@H](N)CCCCN` [Spot E4] (H-[dK][dY][Gly(N-piperonyl)]G[dD][NAllylGly][NFurfurylGly]-{hSer(lactone)}): 8 nM; `C[C@@H](NC(=O)[C@@H](Cc1ccc(O)cc1)NC(=O)[C@@H](CCCCN)NC(=O)[C@@H](Cc1ccccc1)NC(=O)[C@H](N)CC(=O)O)C(=O)N[C@H](CCC(=O)O)C(=O)N(CC(=O)N[C@H]1CCOC1=O)Cc1ccco1` [Spot E8] (H-[dD][dF][dK][dY][dA][dE][NFurfurylGly]-{hSer(lactone)}; C-terminus assumed): 9 nM; `NCCCC[C@@H](N)C(=O)N[C@H](Cc1ccc(O)cc1)C(=O)N[C@H](CCC(=O)O)C(=O)N[C@H](Cc1ccc(O)cc1)C(=O)N[C@H](CCC(=O)O)C(=O)N[C@H](Cc1ccc(O)cc1)C(=O)N(CC(=O)N[C@H]1CCOC1=O)Cc1ccco1` [Spot H1] (H-[dK][dY][dE][dY][dE][dY][NFurfurylGly]-{hSer(lactone)}; C-terminus assumed): 6 nM.

`NCCCC[C@@H](N)C(=O)N[C@H](Cc1ccc(O)cc1)C(=O)N[C@H](CC(=O)O)C(=O)N(CCc1ccc(S(N)(=O)=O)cc1)CC(=O)N(CCc1ccc(S(N)(=O)=O)cc1)CC(=O)N[C@H](CC(=O)O)C(=O)N(CC(=O)N[C@H]1CCOC1=O)Cc1ccco1` [Spot H2] (H-[dK][dY][dD][N(4-Sulfamoylphenethyl)Gly][N(4-Sulfamoylphenethyl)Gly][dD][NFurfurylGly]-{hSer(lactone)}): the Kd came to 5 nM. On to `NCCCC[C@@H](N)C(=O)N[C@H](Cc1ccc(O)cc1)C(=O)N[C@H](CC(=O)O)C(=O)N[C@H](Cc1c[nH]c2ccccc12)C(=O)N[C@H](CCC(=O)O)C(=O)NCC(=O)N(CC(=O)N[C@H]1CCOC1=O)Cc1ccco1` [Spot H6] (H-[dK][dY][dD][dW][dE]G[NFurfurylGly]-{hSer(lactone)}; C-terminus assumed), for which the Kd was 11 nM. On to `NCCCC[C@@H](N)C(=O)N[C@H](Cc1ccc(O)cc1)C(=O)N[C@H](Cc1ccc(O)cc1)C(=O)N[C@H](CCC(=O)O)C(=O)N[C@H](CC(N)=O)C(=O)N(CC(=O)N(CC(=O)N[C@H]1CCOC1=O)Cc1ccco1)Cc1ccc2c(c1)OCO2` [Spot H7] (H-[dK][dY][dY][dE][dN][Gly(N-piperonyl)][NFurfurylGly]-{hSer(lactone)}), for which the Kd is 9 nM. Consider `NCCCC[C@@H](NC(=O)[C@@H](CC(=O)O)NC(=O)[C@H](N)Cc1c[nH]c2ccccc12)C(=O)N[C@H](Cc1ccc(O)cc1)C(=O)N[C@H](Cc1c[nH]cn1)C(=O)N(CCc1ccc(S(N)(=O)=O)cc1)CC(=O)N(CC(=O)N[C@H]1CCOC1=O)Cc1ccco1` [Spot H8] (H-[dW][dD][dK][dY][dH][N(4-Sulfamoylphenethyl)Gly][NFurfurylGly]-{hSer(lactone)}), for which the Kd amounted to 2 nM. Consider `C=CCN(CC(=O)N[C@H](CCC(=O)O)C(=O)N[C@H](CC(C)C)C(=O)N(CC(=O)N[C@H]1CCOC1=O)Cc1ccco1)C(=O)[C@@H](CC(=O)O)NC(=O)[C@@H](Cc1ccc(O)cc1)NC(=O)[C@H](N)CCCCN` [Spot H9] (H-[dK][dY][dD][NAllylGly][dE][dL][NFurfurylGly]-{hSer(lactone)}; C-terminus assumed), for which the Kd turned out to be 4 nM.

Staying with this experiment, now noted: microarray, fluorescently labeled secondary antibody.
On to “N-Asp-Tyr-Lys-Asp-Asp-Asp-Asp-Lys-C [FLAG peptide]”, for which the “binding of anti-FLAG antibody to spotted compound” value is “binds”.

For the next experiment, the system named is anti-Myc antibody. Briefly: Microarray hybridization of spotted compounds with anti-Myc antibody. In kind it is binding. The settings on record: fluorescently labeled secondary antibody. On the procedure:
as §1
Microarray Spotting, Hybridization, and Data Analysis. […]
Dry slides were placed inside the Whatman Fast Frame following the provided instructions, and each of the 16 wells per slide was blocked with 100 μl of StartingBlock (Fisher) for 1 hr at RT with a multichannel pipetteman. […] Gal files were created and used to determine fluorescence intensity of each of the spots with GenePixPro6.0. […] GPR files were created and median fluorescence-background fluorescence values for each of the spots were cut and pasted in Excel and arranged (using simple macros) to simplify transferring results to GraphPad Prism 5.0 software for binding curve analyses.
In the case of “N-Asp-Tyr-Lys-Asp-Asp-Asp-Asp-Lys-C [FLAG peptide]”, the “binding of anti-Myc antibody to spotted compound” value is “No binding”.

For the origin of these results see patent US20120220482A1, “COMPOSITIONS AND METHODS FOR SCREENING PEPTOID LIBRARIES” (The Board of Regents of the University of Texas System, priority 2011, published 2012).
